Laboratory results published in patent US9695155B2, “Herbicidal substituted pyrimidinyloxy benzene compounds” (E. I. DU PONT DE NEMOURS AND COMPANY, priority 2013, dated 2017).

Columns and labels:
barnyardgrass [1] = assay: Test A preemergence; format: in vivo, Echinochloa crus-galli; details: for Barnyardgrass plant response rating (0 to 100 scale, 0 is no effect, 100 is complete control): 125 g ai/ha; for Barnyardgrass plant response rating: 500 g ai/ha, 0 to 100 scale where 0 is no effect and 100 is complete control
In short: (§1)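 Visual injury scored 0–100 (100 = complete control) against untreated controls about 10 days after treatment in a greenhouse. Test chemicals, formulated with surfactant in non-phytotoxic solvent, were sprayed on soil preemergence or on 2-10 cm, one- to two-leaf plants postemergence.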

large (Lg) crabgrass [2] = assay: Test A preemergence; format: in vivo, Digitaria sanguinalis; details: for Crabgrass, Large plant response rating (0 to 100 scale): 125 g ai/ha; for Crabgrass, Large plant response rating: 500 g ai/ha, 0 to 100 scale where 0 is no effect and 100 is complete control
In short: as §1

giant foxtail [3] = assay: Test A preemergence; format: in vivo, Setaria faberii; details: for Foxtail, Giant plant response rating (0 to 100 scale): 125 g ai/ha; for Foxtail, Giant plant response rating: 500 g ai/ha, 0 to 100 scale where 0 is no effect and 100 is complete control
In short: as §1

morningglory [4] = assay: Test A preemergence; format: in vivo, Ipomoea spp.; details: for Morningglory plant response rating (0 to 100 scale): 125 g ai/ha; for Morningglory plant response rating: 500 g ai/ha, 0 to 100 scale where 0 is no effect and 100 is complete control
In short: as §1

pigweed [5] = assay: Test A preemergence; format: in vivo, Amaranthus retroflexus; details: for Pigweed plant response rating (0 to 100 scale): 125 g ai/ha; for Pigweed plant response rating: 500 g ai/ha, 0 to 100 scale where 0 is no effect and 100 is complete control
In short: as §1

velvetleaf [6] = assay: Test A preemergence; format: in vivo, Abutilon theophrasti; details: for Velvetleaf plant response rating (0 to 100 scale): 125 g ai/ha; for Velvetleaf plant response rating: 500 g ai/ha, 0 to 100 scale where 0 is no effect and 100 is complete control
In short: as §1

wheat [7] = assay: Test A preemergence; format: in vivo, Triticum aestivum; details: for Wheat plant response rating (0 to 100 scale): 125 g ai/ha; for Wheat plant response rating: 500 g ai/ha, 0 to 100 scale where 0 is no effect and 100 is complete control
In short: as §1

corn [8] = assay: Test A preemergence; format: in vivo, Zea mays; details: for Corn plant response rating (0 to 100 scale): 125 g ai/ha; for Corn plant response rating: 500 g ai/ha, 0 to 100 scale where 0 is no effect and 100 is complete control
In short: as §1

barnyardgrass [9] = assay: Test A postemergence; format: in vivo, Echinochloa crus-galli; details: 0 to 100 scale where 0 is no effect and 100 is complete control; for Barnyardgrass plant response rating: 125 g ai/ha; for Plant response rating, Barnyardgrass: 500 g ai/ha
In short: as §1

large (Lg) crabgrass [10] = assay: Test A postemergence; format: in vivo, Digitaria sanguinalis; details: 0 to 100 scale where 0 is no effect and 100 is complete control; for Crabgrass, Large plant response rating: 125 g ai/ha; for Plant response rating, Crabgrass, Large: 500 g ai/ha
In short: as §1

giant foxtail [11] = assay: Test A postemergence; format: in vivo, Setaria faberii; details: 0 to 100 scale where 0 is no effect and 100 is complete control; for Foxtail, Giant plant response rating: 125 g ai/ha; for Plant response rating, Foxtail, Giant: 500 g ai/ha
In short: as §1

morningglory [12] = assay: Test A postemergence; format: in vivo, Ipomoea spp.; details: 0 to 100 scale where 0 is no effect and 100 is complete control; for Morningglory plant response rating: 125 g ai/ha; for Plant response rating, Morningglory: 500 g ai/ha
In short: as §1

pigweed [13] = assay: Test A postemergence; format: in vivo, Amaranthus retroflexus; details: 0 to 100 scale where 0 is no effect and 100 is complete control; for Pigweed plant response rating: 125 g ai/ha; for Plant response rating, Pigweed: 500 g ai/ha
In short: as §1

velvetleaf [14] = assay: Test A postemergence; format: in vivo, Abutilon theophrasti; details: 0 to 100 scale where 0 is no effect and 100 is complete control; for Velvetleaf plant response rating: 125 g ai/ha; for Plant response rating, Velvetleaf: 500 g ai/ha
In short: as §1

wheat [15] = assay: Test A postemergence; format: in vivo, Triticum aestivum; details: 0 to 100 scale where 0 is no effect and 100 is complete control; for Wheat plant response rating: 125 g ai/ha; for Plant response rating, Wheat: 500 g ai/ha
In short: as §1

corn [16] = assay: Test A postemergence; format: in vivo, Zea mays; details: 0 to 100 scale where 0 is no effect and 100 is complete control; for Corn plant response rating: 125 g ai/ha; for Plant response rating, Corn: 500 g ai/ha
In short: as §1

rice = assay: Test B flooded paddy test; format: in vivo, Oryza sativa; details: Flood, 250 g ai/ha; 0 to 100 scale where 0 is no effect and 100 is complete control
In short: (§2)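 Greenhouse flooded-pot test: compounds dosed into 3 cm standing water over 2-leaf plants, flood held constant. Rated visually after 13–15 days on 0–100 (complete control = 100); a dash marks no test result.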

sedge, umbrella = assay: Test B flooded paddy test; format: in vivo, Cyperus difformis; details: Flood, 250 g ai/ha; 0 to 100 scale where 0 is no effect and 100 is complete control
In short: as §2

Heteranthera limosa = assay: Test B flooded paddy test; format: in vivo; details: Flood, 250 g ai/ha; 0 to 100 scale where 0 is no effect and 100 is complete control
In short: as §2

barnyardgrass [17] = assay: Test B flooded paddy test; format: in vivo, Echinochloa crus-galli; details: Flood, 250 g ai/ha; 0 to 100 scale where 0 is no effect and 100 is complete control
In short: as §2

SMILES	Barnyardgrass plant response rating (0 to 100 scale, 0 is no effect, 100 is complete control) (barnyardgrass [1])	Barnyardgrass plant response rating (barnyardgrass [1])	Crabgrass, Large plant response rating (0 to 100 scale) (large (Lg) crabgrass [2])	Crabgrass, Large plant response rating (large (Lg) crabgrass [2])	Foxtail, Giant plant response rating (0 to 100 scale) (giant foxtail [3])	Foxtail, Giant plant response rating (giant foxtail [3])	Morningglory plant response rating (0 to 100 scale) (morningglory [4])	Morningglory plant response rating (morningglory [4])	Pigweed plant response rating (0 to 100 scale) (pigweed [5])	Pigweed plant response rating (pigweed [5])	Velvetleaf plant response rating (0 to 100 scale) (velvetleaf [6])	Velvetleaf plant response rating (velvetleaf [6])	Wheat plant response rating (0 to 100 scale) (wheat [7])	Wheat plant response rating (wheat [7])	Corn plant response rating (0 to 100 scale) (corn [8])	Corn plant response rating (corn [8])	Barnyardgrass plant response rating (barnyardgrass [9])	Plant response rating, Barnyardgrass (barnyardgrass [9])	Crabgrass, Large plant response rating (large (Lg) crabgrass [10])	Plant response rating, Crabgrass, Large (large (Lg) crabgrass [10])	also measured
Cc1ccc(Oc2ncc(Cl)cn2)c(-n2cc(Br)cn2)c1Br [Compound 202]	0	10	40	70	10	70	0	0	0	0	0	0	0	0	0	0	0	0	10	50	Foxtail, Giant plant response rating (giant foxtail [11]): 10; Plant response rating, Foxtail, Giant (giant foxtail [11]): 30; Morningglory plant response rating (morningglory [12]): 0; Plant response rating, Morningglory (morningglory [12]): 20; Pigweed plant response rating (pigweed [13]): 30; Plant response rating, Pigweed (pigweed [13]): 50; Velvetleaf plant response rating (velvetleaf [14]): 50; Plant response rating, Velvetleaf (velvetleaf [14]): 70; Wheat plant response rating (wheat [15]): 0; Plant response rating, Wheat (wheat [15]): 0; Corn plant response rating (corn [16]): 0; Plant response rating, Corn (corn [16]): 0; Plant response rating, Rice (rice): 0; Plant response rating, Sedge, Umbrella (sedge, umbrella): 10; Plant response rating, Ducksalad (Heteranthera limosa): 30; Plant response rating, Barnyardgrass (barnyardgrass [17]): 0
O=Cc1cccc(Oc2ncc(Cl)cn2)c1-n1cc(Cl)cn1 [Compound 205]	0	0	0	0	0	0	0	0	0	10	0	10	0	0	0	0	0	0	0	0	Foxtail, Giant plant response rating (giant foxtail [11]): 0; Plant response rating, Foxtail, Giant (giant foxtail [11]): 0; Morningglory plant response rating (morningglory [12]): 0; Plant response rating, Morningglory (morningglory [12]): 0; Pigweed plant response rating (pigweed [13]): 0; Plant response rating, Pigweed (pigweed [13]): 0; Velvetleaf plant response rating (velvetleaf [14]): 10; Plant response rating, Velvetleaf (velvetleaf [14]): 20; Wheat plant response rating (wheat [15]): 0; Plant response rating, Wheat (wheat [15]): 0; Corn plant response rating (corn [16]): 0; Plant response rating, Corn (corn [16]): 0; Plant response rating, Rice (rice): 0; Plant response rating, Sedge, Umbrella (sedge, umbrella): 0; Plant response rating, Ducksalad (Heteranthera limosa): 0; Plant response rating, Barnyardgrass (barnyardgrass [17]): 0
N#Cc1ccc(Oc2ncc(Cl)cn2)c(-n2cc(Br)cn2)c1 [Compound 213]	0	10	10	100	20	100	0	10	50	100	0	0	0	0	0	0	0	10	20	70	Foxtail, Giant plant response rating (giant foxtail [11]): 10; Plant response rating, Foxtail, Giant (giant foxtail [11]): 30; Morningglory plant response rating (morningglory [12]): 20; Plant response rating, Morningglory (morningglory [12]): 30; Pigweed plant response rating (pigweed [13]): 100; Plant response rating, Pigweed (pigweed [13]): 100; Velvetleaf plant response rating (velvetleaf [14]): 10; Plant response rating, Velvetleaf (velvetleaf [14]): 20; Wheat plant response rating (wheat [15]): 0; Plant response rating, Wheat (wheat [15]): 0; Corn plant response rating (corn [16]): 0; Plant response rating, Corn (corn [16]): 30; Plant response rating, Rice (rice): 0; Plant response rating, Sedge, Umbrella (sedge, umbrella): 70; Plant response rating, Ducksalad (Heteranthera limosa): 0; Plant response rating, Barnyardgrass (barnyardgrass [17]): 0
N#Cc1cnc(Oc2cccc(C#N)c2-n2cc(Br)cn2)nc1 [Compound 214]	0	0	0	0	0	0	0	0	0	0	0	0	0	0	0	0	0	0	0	0	Foxtail, Giant plant response rating (giant foxtail [11]): 0; Plant response rating, Foxtail, Giant (giant foxtail [11]): 0; Morningglory plant response rating (morningglory [12]): 0; Plant response rating, Morningglory (morningglory [12]): 0; Pigweed plant response rating (pigweed [13]): 0; Plant response rating, Pigweed (pigweed [13]): 0; Velvetleaf plant response rating (velvetleaf [14]): 0; Plant response rating, Velvetleaf (velvetleaf [14]): 0; Wheat plant response rating (wheat [15]): 0; Plant response rating, Wheat (wheat [15]): 0; Corn plant response rating (corn [16]): 0; Plant response rating, Corn (corn [16]): 0; Plant response rating, Rice (rice): 0; Plant response rating, Sedge, Umbrella (sedge, umbrella): 0; Plant response rating, Ducksalad (Heteranthera limosa): 0; Plant response rating, Barnyardgrass (barnyardgrass [17]): 0
